The record followed here is patent publication US20090054392A1, “NAPHTHYLPYRIMIDINE, NAPHTHYLPYRAZINE AND NAPHTHYLPYRIDAZINE ANALOGS AND THEIR USE AS AGONISTS OF THE WNT-BETA-CATENIN CELLULAR MESSAGING SYSTEM” (Wyeth, priority 2007, published 2009).

Molecules are shown by their SMILES.

This data set relates to Dkk1-LRP5-TCF-Luciferase. Briefly: Functional Dkk1-LRP5-TCF-Luciferase Assay in U2OS Cells. The settings on record: for EC50 / fold induction at 2 µM / fold induction at 20 µM: Homo sapiens, U2OS; for fold induction at 2 µM: read-out: B = TCF ACTIVITY/DMSO CONTROL Fold induction @ 2.0 uM, 2.0 uM compound; for fold induction at 20 µM: read-out: C = TCF ACTIVITY/DMSO CONTROL Fold induction @ 20.0 uM, 20.0 uM compound; for A = MAX FOLD Induction/DMSO CONTROL: maximum fold induction over DMSO control.

As a reminder, the EC50 is the midpoint of the concentration-response curve. Read a low EC50 as a more potent agent. For the compound `c1ccc2cc(-c3ccnc(N4CCC(CN5CCOCC5)C4)n3)ccc2c1` (centres unmarked) [4-({1-[4-(2-naphthyl)pyrimidin-2-yl]pyrrolidin-3-yl}methyl)morpholine], the EC50 came to 4.8 µM, the fold induction at 2 µM worked out at 1.07, the fold induction at 20 µM is 3.1 and the “A = MAX FOLD Induction/DMSO CONTROL” value is given as 2.990 fold.
With `O=C1CN(CC2CCN(c3nccc(-c4ccc5ccccc5c4)n3)C2)CCN1` (centres unmarked) [4-({1-[4-(2-naphthyl)pyrimidin-2-yl]pyrrolidin-3-yl}methyl)piperazin-2-one], the fold induction at 2 µM was determined as 1.23 and the fold induction at 20 µM came to 0.46.
`c1ccc2cc(-c3ccnc(N4CCC(CN5CCSCC5)C4)n3)ccc2c1` (centres unmarked) [4-({1-[4-(2-naphthyl)pyrimidin-2-yl]pyrrolidin-3-yl}methyl)thiomorpholine]: the fold induction at 2 µM was determined as 1.9.
In the case of `O=C(CN1CCN(c2nccc(-c3ccc4ccccc4c3)n2)CC1)N1CCOCC1` [4-({4-[4-(2-naphthyl)pyrimidin-2-yl]piperazin-1-yl}acetyl)morpholine], the fold induction at 2 µM stood at 1.03, the fold induction at 20 µM was 2.1 and the “A = MAX FOLD Induction/DMSO CONTROL” value turned out to be 1.180 fold.
For the compound `NS(=O)(=O)c1ccc(CNc2nccc(-c3ccc4ccccc4c3)n2)cc1` [4-({[4-(2-naphthyl)pyrimidin-2-yl]amino}methyl)benzenesulfonamide], the fold induction at 2 µM came to 1.3 and the fold induction at 20 µM was found to be 1.06.
Turning to `NC(=O)N1CCC(CNc2nccc(-c3ccc4ccccc4c3)n2)CC1` [4-({[4-(2-naphthyl)pyrimidin-2-yl]amino}methyl)piperidine-1-carboxamide], the fold induction at 2 µM worked out at 0.88 and the fold induction at 20 µM is 1.58.
For `O=CN1CCCN(c2nccc(-c3ccc4ccccc4c3)n2)CC1` [4-[4-(2-naphthyl)pyrimidin-2-yl]-1,4-diazepane-1-carbaldehyde], in that order: 0.87 and 1.88.
With `NC(=O)N1CCCN(c2nccc(-c3ccc4ccccc4c3)n2)CC1` [4-[4-(2-naphthyl)pyrimidin-2-yl]-1,4-diazepane-1-carboxamide], the EC50 was 0.32 µM, the fold induction at 2 µM came out at 1.5, the fold induction at 20 µM is 1.79 and the “A = MAX FOLD Induction/DMSO CONTROL” value is reported as 2.050 fold.
With `N=C(N)N1CCN(c2nccc(-c3ccc4ccccc4c3)n2)CC1` [4-[4-(2-naphthyl)pyrimidin-2-yl]piperazine-1-carboximidamide], the fold induction at 2 µM is 1.1 and the fold induction at 20 µM is 0.05.
As to `O=C(N[C@@H]1CCN(c2nccc(-c3ccc4ccccc4c3)n2)C1)c1ccc(Cl)cc1` [4-chloro-N-{(3R)-1-[4-(2-naphthyl)pyrimidin-2-yl]pyrrolidin-3-yl}benzamide], the fold induction at 2 µM was found to be 1.68.
As for `O=C(N[C@H]1CCN(c2nccc(-c3ccc4ccccc4c3)n2)C1)c1ccc(Cl)cc1` [4-chloro-N-{(3S)-1-[4-(2-naphthyl)pyrimidin-2-yl]pyrrolidin-3-yl}benzamide], the fold induction at 2 µM was found to be 1.78.
With `N#Cc1ccc(C(=O)NC2CCCC(Nc3nccc(-c4ccc5ccccc5c4)n3)C2)cc1` (centres unmarked) [4-cyano-N-(3-{[4-(2-naphthyl)pyrimidin-2-yl]amino}cyclohexyl)benzamide], the fold induction at 2 µM was 1.15 and the fold induction at 20 µM was determined as 0.24.
For the compound `N#Cc1ccc(C(=O)N[C@@H]2CCN(c3nccc(-c4ccc5ccccc5c4)n3)C2)cc1` [4-cyano-N-{(3R)-1-[4-(2-naphthyl)pyrimidin-2-yl]pyrrolidin-3-yl}benzamide], the fold induction at 20 µM was determined as 1.29.
As to `N#Cc1ccc(C(=O)N[C@H]2CCN(c3nccc(-c4ccc5ccccc5c4)n3)C2)cc1` [4-cyano-N-{(3S)-1-[4-(2-naphthyl)pyrimidin-2-yl]pyrrolidin-3-yl}benzamide], the fold induction at 2 µM worked out at 0.84 and the fold induction at 20 µM is 1.24.
As for `CC1(O)CCN(c2nccc(-c3ccc4ccccc4c3)n2)CC1` [4-methyl-1-[4-(2-naphthyl)pyrimidin-2-yl]piperidin-4-ol], the fold induction at 20 µM was 1.09.
With `Cc1ccc(S(=O)(=O)N[C@H]2CC[C@H](Nc3nccc(-c4ccc5ccccc5c4)n3)CC2)cc1` [4-methyl-N-(trans-4-{[4-(2-naphthyl)pyrimidin-2-yl]amino}cyclohexyl)benzenesulfonamide], the fold induction at 2 µM amounted to 1.78, the fold induction at 20 µM amounted to 1.13 and the “A = MAX FOLD Induction/DMSO CONTROL” value came to 1.230 fold.
Take `Cc1ccc(S(=O)(=O)NCC2CN(c3nccc(-c4ccc5ccccc5c4)n3)C2)cc1` [4-methyl-N-({1-[4-(2-naphthyl)pyrimidin-2-yl]azetidin-3-yl}methyl)benzenesulfonamide]: the fold induction at 2 µM was found to be 1.16 and the fold induction at 20 µM worked out at 0.28.
Taken in the same sequence, the figures for `Cc1ccc(S(=O)(=O)NCC2CCN(c3nccc(-c4ccc5ccccc5c4)n3)CC2)cc1` [4-methyl-N-({1-[4-(2-naphthyl)pyrimidin-2-yl]piperidin-4-yl}methyl)benzenesulfonamide] were 1.07 and 0.41.
For `Cc1ccc(S(=O)(=O)NC2CCCN(c3nccc(-c4ccc5ccccc5c4)n3)CC2)cc1` (centres unmarked) [4-methyl-N-{1-[4-(2-naphthyl)pyrimidin-2-yl]azepan-4-yl}benzenesulfonamide], the fold induction at 2 µM amounted to 1.49, the fold induction at 20 µM was 2.26 and the “A = MAX FOLD Induction/DMSO CONTROL” value was determined as 0.780 fold.
For `Cc1ccc(S(=O)(=O)N[C@@H]2CCN(c3nccc(-c4ccc5ccccc5c4)n3)C2)cc1` [4-methyl-N-{(3R)-1-[4-(2-naphthyl)pyrimidin-2-yl]pyrrolidin-3-yl}benzenesulfonamide], the fold induction at 2 µM was 1.44 and the fold induction at 20 µM is 0.09.
Consider `Cc1ccc(S(=O)(=O)N[C@H]2CCN(c3nccc(-c4ccc5ccccc5c4)n3)C2)cc1` [4-methyl-N-{(3S)-1-[4-(2-naphthyl)pyrimidin-2-yl]pyrrolidin-3-yl}benzenesulfonamide], for which the fold induction at 2 µM stood at 1.24.
For `c1ccc2cc(-c3ccnc(N4CC[C@@H](N5CCOCC5)C4)n3)ccc2c1` [4-{(3R)-1-[4-(2-naphthyl)pyrimidin-2-yl]pyrrolidin-3-yl}morpholine], the fold induction at 2 µM was 1.2, the fold induction at 20 µM was found to be 2.45 and the “A = MAX FOLD Induction/DMSO CONTROL” value is given as 1.290 fold.
In the case of `O=C1CN([C@@H]2CCN(c3nccc(-c4ccc5ccccc5c4)n3)C2)CCN1` [4-{(3R)-1-[4-(2-naphthyl)pyrimidin-2-yl]pyrrolidin-3-yl}piperazin-2-one], the EC50 was 5.74 µM, the fold induction at 2 µM turned out to be 1.25, the fold induction at 20 µM came to 2.33 and the “A = MAX FOLD Induction/DMSO CONTROL” value is 2.874 fold.
For `c1ccc2cc(-c3ccnc(N4CC[C@H](N5CCOCC5)C4)n3)ccc2c1` [4-{(3S)-1-[4-(2-naphthyl)pyrimidin-2-yl]pyrrolidin-3-yl}morpholine], in that order: 7.5 µM, 1.17, 3.06 and 2.405 fold.
For `O=C1CN([C@H]2CCN(c3nccc(-c4ccc5ccccc5c4)n3)C2)CCN1` [4-{(3S)-1-[4-(2-naphthyl)pyrimidin-2-yl]pyrrolidin-3-yl}piperazin-2-one], in that order: 6.88 µM, 1.28, 3.16 and 3.585 fold.
On to `NC(=O)N1CCC(Nc2nccc(-c3ccc4ccccc4c3)n2)CC1` [4-{[4-(2-naphthyl)pyrimidin-2-yl]amino}piperidine-1-carboxamide], for which the concentration giving a half-maximal response (EC50) worked out at 5.28 µM, the fold induction at 2 µM came out at 1.31, the fold induction at 20 µM came to 3.17 and the “A = MAX FOLD Induction/DMSO CONTROL” value is 3.552 fold.
As to `O=CN1CCCN(Cc2nccc(-c3ccc4ccccc4c3)n2)CC1` [4-{[4-(2-naphthyl)pyrimidin-2-yl]methyl}-1,4-diazepane-1-carbaldehyde], the fold induction at 2 µM is 1.15 and the fold induction at 20 µM came out at 1.13.
For `CN(c1nccc(-c2ccc3ccccc3c2)n1)C1CCN(C=O)CC1` [4-{methyl[4-(2-naphthyl)pyrimidin-2-yl]amino}piperidine-1-carbaldehyde], in that order: 1.73 and 1.29.
As to `CN(c1nccc(-c2ccc3ccccc3c2)n1)C1CCN(C(N)=O)CC1` [4-{methyl[4-(2-naphthyl)pyrimidin-2-yl]amino}piperidine-1-carboxamide], the fold induction at 2 µM came to 1.65 and the fold induction at 20 µM is 0.63.
For the compound `CN(c1nccc(-c2ccc3ccccc3c2)n1)C1CCN(C(=N)N)CC1` [4-{methyl[4-(2-naphthyl)pyrimidin-2-yl]amino}piperidine-1-carboximidamide], the fold induction at 2 µM amounted to 1.74.
As for `c1ccc2cc(-c3ccnc(N4CC5CCNC5C4)n3)ccc2c1` (centres unmarked) [5-(4-naphthalen-2-ylpyrimidin-2-yl)octahydropyrrolo[3,4-b]pyrrole], the fold induction at 2 µM stood at 1.5.
On to `CN(C)c1cccc2c(S(=O)(=O)N[C@H]3CC[C@H](Nc4nccc(-c5ccc6ccccc6c5)n4)CC3)cccc12` [5-(dimethylamino)-N-(trans-4-{[4-(2-naphthyl)pyrimidin-2-yl]amino}cyclohexyl)naphthalene-1-sulfonamide], for which the fold induction at 2 µM was 1.43 and the fold induction at 20 µM is 1.34.
For the compound `c1ccc2cc(-c3ccnc(N4CC[C@@H](N5CC6CCNC6C5)C4)n3)ccc2c1` (stereo partly drawn) [5-{(3R)-1-[4-(2-naphthyl)pyrimidin-2-yl]pyrrolidin-3-yl}octahydropyrrolo[3,4-b]pyrrole], the fold induction at 2 µM is 2.2.
On to `c1ccc2cc(-c3ccnc(N4CC[C@H](N5CC6CCNC6C5)C4)n3)ccc2c1` (stereo partly drawn) [5-{(3S)-1-[4-(2-naphthyl)pyrimidin-2-yl]pyrrolidin-3-yl}octahydropyrrolo[3,4-b]pyrrole], for which the fold induction at 2 µM was 2.2.
